Data published in PubChem BioAssay (NCI).
“And” between values parts separate entries of the source, which are not always exact repeats. Equal entries are not always repeated.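 Briefly, cells in 96-well plates were exposed to five compound concentrations for 48 h, and endpoints were estimated by linear interpolation. At the GI50, growth is halved. At the TGI there is no net growth.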

Tests used:
Test in all cases: NCI tumour cell line growth inhibition, 48 h
BT-549 breast = test system: BT-549 breast
HCT-15 colon = test system: HCT-15 colon
HOP-92 NSCLC = test system: HOP-92 NSCLC
LOX IMVI melanoma = test system: LOX IMVI melanoma
MDA-MB-435 = test system: MDA-MB-435
SF-268 CNS = test system: SF-268 CNS
SN12C renal = test system: SN12C renal
SNB-19 CNS = test system: SNB-19 CNS
TK-10 renal = test system: TK-10 renal
UO-31 renal = test system: UO-31 renal

Compound | GI50 (BT-549 breast) | TGI (BT-549 breast) | GI50 (HCT-15 colon) | TGI (HCT-15 colon) | GI50 (HOP-92 NSCLC) | TGI (HOP-92 NSCLC) | GI50 (LOX IMVI melanoma) | TGI (LOX IMVI melanoma) | GI50 (MDA-MB-435) | TGI (MDA-MB-435) | GI50 (SF-268 CNS) | TGI (SF-268 CNS) | GI50 (SN12C renal) | TGI (SN12C renal) | GI50 (SNB-19 CNS) | TGI (SNB-19 CNS) | GI50 (TK-10 renal) | TGI (TK-10 renal) | GI50 (UO-31 renal) | TGI (UO-31 renal)
CC1(C)[C@H](O)[C@H](F)C[C@@]2(C)Oc3ccc(C(=O)Nc4ccc5c(c4)NC(=O)C54CCN(CCCCC#N)CC4)cc3C[C@H]12 | 0.0186 µM | 6.31 µM and 8.37 µM | 5.43 µM and 1.59 µM | 19.1 µM | 0.00986 µM | 3.28 µM and 8.09 µM | 0.0396 µM | 2.82 µM and 2.17 µM | 0.09 µM and 0.0946 µM | 1.83 µM and 2.94 µM | 0.413 µM and 0.4 µM | 10.1 µM | 11.7 µM | 42.4 µM | 0.412 µM and 1.07 µM | 6.81 µM | 3.44 µM | 14.7 µM | 0.456 µM and 0.558 µM | 8.32 µM and 11.4 µM
N#C/C(=C\c1cc2ccc(N3CCC3)cc2oc1=O)C(=O)N(CC(=O)O)CC(=O)O | > 100 µM | > 100 µM | 95.5 µM | > 100 µM | > 100 µM | > 100 µM | > 100 µM | > 100 µM | > 100 µM | > 100 µM | > 100 µM | > 100 µM | > 100 µM | > 100 µM | > 100 µM | > 100 µM | > 100 µM | > 100 µM | > 100 µM | > 100 µM
COC1=C(OC)C(=O)C(CCCCCCCCCCO)=C(C)C1=O | 12.7 µM | 25.9 µM | 8.81 µM | 24.5 µM | 2.53 µM | 9.84 µM | 0.964 µM | 9.72 µM | 1.89 µM | 3.9 µM | 9.61 µM | 30.7 µM | 7.39 µM | 24.4 µM | 14.8 µM | 31.3 µM | 16.6 µM | 30.6 µM | 12.7 µM | 26.6 µM
[Cl][Cu][Cl] | > 10 µM | > 10 µM | > 10 µM | > 10 µM | > 10 µM | > 10 µM | > 10 µM | > 10 µM | > 10 µM | > 10 µM | > 10 µM | > 10 µM | > 10 µM | > 10 µM | > 10 µM | > 10 µM | > 10 µM | > 10 µM | > 10 µM | > 10 µM
Nc1nc2ccccc2c2c1S(=O)(=O)c1ccc(Cl)cc1C2=O | 1.91 µM | > 50 µM | 0.812 µM | 2.31 µM | 0.542 µM | 3.63 µM | 0.873 µM | 1.84 µM | 1.65 µM | > 50 µM | 1.83 µM | > 50 µM | 1.16 µM | 4.54 µM | 2.52 µM | > 50 µM | 1.93 µM | > 50 µM | 1.21 µM | 9.38 µM
CC(=O)N(O)c1ccc(/C=C/c2ccccc2)cc1 | 2.59 µM | 20.5 µM | 2.9 µM | > 100 µM | 1.14 µM | 3.65 µM | 1.48 µM | 14.6 µM | 3.39 µM | > 100 µM | 0.817 µM | 9.69 µM | 0.763 µM | 37.5 µM | 1.88 µM | > 100 µM | 1.9 µM | 5.86 µM | 0.759 µM | 2.9 µM
O=[N+]([O-])c1cc(Cc2cc([N+](=O)[O-])c3cccnc3c2O)c(O)c2ncccc12 |  | > 77.7 µM |  | 66.4 µM |  | 37.1 µM |  | > 66.2 µM |  | 32.7 µM |  | > 43.8 µM |  | > 65.3 µM |  | 51.2 µM |  | 48.3 µM |  | 21.8 µM
c1ccc(C2CCCCC2)c(OCCCCCN2CCNCC2)c1 | 7.38 µM | 37.9 µM | 1.83 µM | 4.05 µM | 4.44 µM | 23 µM | 1.59 µM | 3.01 µM | 1.69 µM | 3.3 µM | 5.14 µM | 21.4 µM | 2.93 µM | 18.1 µM | 3.49 µM | 14.4 µM | 5.67 µM | 19.3 µM | 5.46 µM | 21.1 µM
COC1=C(OC)[C@]2(OC)c3c(O)c(OC)c4c(c3O[C@@]23O[C@@H](c2ccccc2)CC=C3C1=O)[C@@H](OC)C[C@H](c1ccccc1)O4 | 0.461 µM | 1.56 µM | 0.29 µM | 0.819 µM | 1.24 µM | 2.55 µM | 1.58 µM | 3.31 µM | 0.301 µM | 1.1 µM | 0.806 µM | 2.84 µM | 0.317 µM | 1.03 µM | 1.81 µM | 3.51 µM | 0.821 µM | 1.93 µM | 0.957 µM | 2.13 µM
COc1ccc(COc2cc3oc(=O)c4cc(C(C)O)ccc4c3cc2OC)cc1 (stereo not given) | 10.1 µM | 49.4 µM | 12 µM | > 100 µM | 4.22 µM | 33.5 µM | 18.7 µM | > 100 µM | 4.33 µM | > 22.9 µM | 9.89 µM | 40.5 µM | 21.2 µM | > 100 µM | 16 µM | 99.3 µM | 17.4 µM | 62.6 µM | 14.7 µM | > 100 µM
NC(=O)CC(N)c1nn[nH]n1 (stereo not given) |  | > 100 µM |  | > 100 µM |  | > 100 µM |  | > 100 µM |  | > 100 µM |  | > 100 µM |  | > 100 µM |  | > 100 µM |  | > 100 µM |  | > 100 µM
Nc1nc(C(=O)O)c(N=Nc2ccccc2)c(=O)[nH]1 |  | > 100 µM |  | > 100 µM |  | > 100 µM |  | > 100 µM |  | > 100 µM |  | > 100 µM |  | > 100 µM |  | > 100 µM |  | > 100 µM |  | > 100 µM
N#Cc1cccc(Nc2ncc(-c3ccccc3)o2)c1 | > 20.7 µM | > 25 µM | 16.8 µM | > 25 µM | 7.32 µM | > 25 µM | 9.47 µM | > 25 µM | > 25 µM | > 25 µM | 17.3 µM | > 25 µM | 24.2 µM | > 25 µM | 17.3 µM | > 25 µM | 16.5 µM | > 25 µM | 7.84 µM | > 25 µM
Clc1nc(Cl)c2ncn(CCOCCn3cnc4c(Cl)nc(Cl)nc43)c2n1 | 0.208 µM | 0.392 µM | 0.185 µM | 0.365 µM | 0.2 µM | 0.687 µM | 0.185 µM | 0.35 µM | 0.204 µM | 0.466 µM | 0.194 µM | 0.347 µM | 0.214 µM | 0.433 µM | 0.448 µM | 0.968 µM | 0.772 µM | 1.71 µM | 0.633 µM | 1.25 µM
CC1=NNC(=S)NCCCN2CCN(CCCNC(=S)NN=C(C)C=NNC(=S)NCCCN3CCN(CCCNC(=S)NN=C1)CC3)CC2 |  | > 100 µM |  | > 100 µM |  | > 100 µM |  | > 100 µM |  | > 100 µM |  | > 100 µM |  | > 100 µM |  | > 100 µM |  | > 100 µM |  | > 100 µM
Cc1ccc(S(=O)(=O)NC(=O)OC23COCN2COC3)cc1 |  | > 100 µM |  | > 100 µM |  | > 100 µM |  | > 100 µM |  | > 100 µM |  | > 100 µM |  | > 100 µM |  | > 100 µM |  | > 100 µM |  | > 100 µM
N#Cc1c(NC(=O)c2ccccc2F)sc2c1CCCC2 | > 20.3 µM | > 25 µM | 21.1 µM | > 25 µM | > 25 µM | > 25 µM | > 25 µM | > 25 µM | 1.31 µM | > 12.1 µM | > 25 µM | > 25 µM | > 25 µM | > 25 µM | > 25 µM | > 25 µM | > 25 µM | > 25 µM | > 25 µM | > 25 µM
N#CC1C(N)=NNC12Nc1ccccc1S2 (stereo not given) | 18.7 µM | 57.4 µM | 15.5 µM | 64.2 µM | 34.7 µM | > 100 µM | 18.4 µM | 37.6 µM | 13.9 µM | 51.3 µM | 62.9 µM | > 100 µM | 24.4 µM | 60.2 µM | 28.6 µM | > 100 µM | 41.5 µM | > 100 µM | 33.1 µM | > 100 µM
COc1ccc(S(=O)(=O)N2CCNCC2)cc1OC | > 100 µM | > 100 µM | > 100 µM | > 100 µM | > 100 µM | > 100 µM | > 100 µM | > 100 µM | > 100 µM | > 100 µM | > 100 µM | > 100 µM | > 100 µM | > 100 µM | > 100 µM | > 100 µM | > 100 µM | > 100 µM | > 100 µM | > 100 µM
Cc1cc(O)c2c3c(ccc2c1)C(=O)c1c(O)cccc1C3=O |  | > 100 µM |  | > 100 µM |  | > 100 µM |  | > 100 µM |  | 0.341 µM |  | > 45 µM |  | > 100 µM |  | > 100 µM |  | > 100 µM |  | > 100 µM
COc1cc(C(=O)/C=C/c2c(C(F)(F)F)nc3ccccn23)cc(OC)c1OC | 1.64 µM | 3.95 µM | 2.1 µM | 7.57 µM | 2.65 µM | 9.94 µM | 1.66 µM | 3.77 µM | 2.26 µM | 8.76 µM | 1.64 µM | 3.52 µM | 2.09 µM | 6.49 µM | 1.93 µM | 3.85 µM | 2.09 µM | 4.33 µM | 1.49 µM | 3.11 µM
